# Data taken from US20260306525A1, “COMBINATION THERAPY GLUCOCORTICOIDS AND GINSENOSIDE” (FYTAGORAS B.V., priority 2023, published 2026).
# What was measured:
# [1] = system: gr; assay: qPCR gr mRNA level in zebrafish larvae; format: in vivo, zebrafish (Danio rerio); settings: short-term (6 h) and long-term (5 days); beclomethasone 10 μM, Rg1 50 μM or combination
# Method: […] Groups of 15 larvae were collected in TRIzol reagent (ThermoFisher) and total RNA was isolated using miRNeasy mini kit (Qiagen, Hilden, Germany). For experiments in HeLa cells, cells were seeded in 6 well plates and after treatment, the cells were removed from the wells using TRIzol reagent and mRNA was isolated using miRNeasy mini kit (Qiagen) according to the manufacturer's instructions. The RNA samples were DNAse-treated utilizing the DNA-free™ DNA Removal Kit (ThermoFisher Scientific). The cDNA synthesis was performed using the iScript cDNA synthesis kit (Bio-Rad Laboratories, Hercules, CA, USA) using 1 μg of RNA per sample. For qPCR, 10 μM of forward primer and 10 μM of reverse primer, 12.5 μl of IQ SYBR Green Supermix (Bio-Rad Laboratories), and 2 μl of cDNA were added to the qPCR reaction mixture. […] The qPCR reactions were performed on a MyiQ-single-color real-time PCR detection system (Bio-Rad Laboratories), with initial denaturation for 3 min, 95° C., and 40 cycles of 15 s at 95.5° C., 15 s at 60° C., and 30 s at 72° C. Cycle threshold values (Ct values, i.e. the cycle numbers at which a threshold value of the fluorescence intensity was reached) were determined for each sample. […] The fold change per sample (compared to the respective control group) was calculated using the […]Ct method.
# [2] = system: NFKBIA; assay: qPCR NFKBIA expression in HeLa cells (GR transactivation); format: cell-based, human; settings: beclomethasone 1 μM, Rg1 50 μM or combination
# Method: HeLa (human cervical cancer) cells were cultured in Dulbecco's Modified Eagle's (DMEM) High Glucose (HG) medium without phenol red supplemented with 10% Fetal Calf Serum (FCS) and 10% Glutamax (Sigma-Aldrich). The cells were maintained at 37° C. and 5% CO2. At 24 h before adding the treatment, the medium was replaced by DMEM HG with 10% charcoal-inactivated serum and 10% Glutamax (Sigma-Aldrich). The cells were exposed to short- and long-term compound treatments. […] Subsequently, TNF-α (10 ng/ml) was added along with the compound treatments for 6 h (this last step was not added in the actinomycin-D and cycloheximide experiments).
# To determine levels of gene expression in zebrafish larvae, 3 dpf larvae were used in both wounded and non-wounded conditions, and after short- and long-term treatments. Groups of 15 larvae were collected in TRIzol reagent (ThermoFisher) and total RNA was isolated using miRNeasy mini kit (Qiagen, Hilden, Germany). For experiments in HeLa cells, cells were seeded in 6 well plates and after treatment, the cells were removed from the wells using TRIzol reagent and mRNA was isolated using miRNeasy mini kit (Qiagen) according to the manufacturer's instructions. The RNA samples were DNAse-treated utilizing the DNA-free™ DNA Removal Kit (ThermoFisher Scientific). The cDNA synthesis was performed using the iScript cDNA synthesis kit (Bio-Rad Laboratories, Hercules, CA, USA) using 1 μg of RNA per sample. For qPCR, 10 μM of forward primer and 10 μM of reverse primer, 12.5 μl of IQ SYBR Green Supermix (Bio-Rad Laboratories), and 2 μl of cDNA were added to the qPCR reaction mixture. […] The qPCR reactions were performed on a MyiQ-single-color real-time PCR detection system (Bio-Rad Laboratories), with initial denaturation for 3 min, 95° C., and 40 cycles of 15 s at 95.5° C., 15 s at 60° C., and 30 s at 72° C. Cycle threshold values (Ct values, i.e. the cycle numbers at which a threshold value of the fluorescence intensity was reached) were determined for each sample. The gene expression level for each sample was normalized using the expression of ppial (peptidylprolyl isomerase Ab (cyclophilin A)) for zebrafish samples, and 18S rRNA for human cells. The fold change per sample (compared to the respective control group) was calculated using the […]Ct method.
# [3] = system: il6; settings: previously shown, ref [17]; cited from earlier work
smiles,measurement,setting,value
"CC(C)=CCC[C@](C)(O[C@@H]1O[C@H](CO)[C@@H](O)[C@H](O)[C@H]1O)[C@H]1CC[C@]2(C)[C@@H]1[C@H](O)C[C@@H]1[C@@]3(C)CC[C@H](O)C(C)(C)[C@@H]3[C@@H](O[C@@H]3O[C@H](CO)[C@@H](O)[C@H](O)[C@H]3O)C[C@]12C [Rg1, (3β,6α, 12β)-3,12-Dihydroxydammar-24-ene-6,20-diyl bis-β-D-glucopyranoside]",gr mRNA level,[1],did not affect the gr mRNA level
same,"NFKBIA expression, long-term",[2],did not affect the expression of these genes
same,"NFKBIA expression, short-term",[2],did not affect the expression of these genes
same,il6 expression after wounding,[3],transrepressed
"C[C@H]1C[C@H]2[C@@H]3CCC4=CC(=O)C=C[C@]4(C)[C@@]3(Cl)[C@@H](O)C[C@]2(C)[C@@]1(O)C(=O)CO [beclomethasone, reference compound]",gr mRNA level,[1],suppressed the gr mRNA level only after long-term treatment
same,"NFKBIA expression, long-term",[2],reduced over time
same,"NFKBIA expression, short-term",[2],strongly increased the expression of these genes after short-term treatment
same,il6 expression after wounding,[3],transrepressed
